Patent publication US12440496B2, “Natriuretic peptide receptor a agonists useful for the treatment of cardiometabolic diseases, kidney disease and diabetes” (Merck Sharp & Dohme LLC, priority 2019, dated 2025)

Molecular target: T1, hNPRA (Homo sapiens, UniProt P16066)
T1 construct: expressed in transfected cells
T1 sequence (P16066 33-1061): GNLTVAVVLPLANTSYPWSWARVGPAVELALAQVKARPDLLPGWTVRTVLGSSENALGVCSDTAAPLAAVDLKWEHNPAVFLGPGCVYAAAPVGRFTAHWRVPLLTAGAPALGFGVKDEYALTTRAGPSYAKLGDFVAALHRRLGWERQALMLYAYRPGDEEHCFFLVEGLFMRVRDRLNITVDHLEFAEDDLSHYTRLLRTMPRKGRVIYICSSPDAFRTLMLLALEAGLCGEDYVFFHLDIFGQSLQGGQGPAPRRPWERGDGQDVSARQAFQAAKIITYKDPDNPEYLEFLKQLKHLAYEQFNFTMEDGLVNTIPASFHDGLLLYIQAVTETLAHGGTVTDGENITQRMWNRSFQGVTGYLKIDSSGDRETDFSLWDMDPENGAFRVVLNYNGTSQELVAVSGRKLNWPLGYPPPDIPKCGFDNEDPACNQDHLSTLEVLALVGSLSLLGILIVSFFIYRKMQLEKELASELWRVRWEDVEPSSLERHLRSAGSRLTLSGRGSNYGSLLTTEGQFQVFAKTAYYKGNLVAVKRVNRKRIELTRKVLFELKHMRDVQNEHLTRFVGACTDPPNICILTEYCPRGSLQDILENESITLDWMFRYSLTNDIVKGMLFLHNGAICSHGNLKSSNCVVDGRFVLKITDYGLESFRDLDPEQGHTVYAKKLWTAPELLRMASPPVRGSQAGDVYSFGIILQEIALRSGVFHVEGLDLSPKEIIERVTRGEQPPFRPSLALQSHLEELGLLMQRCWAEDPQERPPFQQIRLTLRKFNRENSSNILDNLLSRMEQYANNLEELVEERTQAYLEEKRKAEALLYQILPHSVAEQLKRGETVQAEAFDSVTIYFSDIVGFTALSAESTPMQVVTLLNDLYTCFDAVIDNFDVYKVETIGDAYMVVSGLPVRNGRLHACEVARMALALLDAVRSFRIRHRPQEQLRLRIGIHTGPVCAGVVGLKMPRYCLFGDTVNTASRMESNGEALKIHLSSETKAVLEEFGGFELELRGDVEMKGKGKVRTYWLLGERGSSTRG
Assay: NPRA Functional Cell Assay (cGMP HTRF, NPRA HEK JumpIn stable cells)
Assay type: cell-based
Conditions: cGMP production, 1 hour at 37° C., 10-point dose response
How it was run: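 cGMP HTRF read-out after 1 hour compound treatment at 37° C. of human NPRA-expressing HEK JumpIn cells, 1500 cells/well, in buffer with phosphodiesterase inhibitors IBMX and RO20 (100 uM each). Signal converted to [cGMP] by calibration curve; EC50s fitted by 4-parameter logistic; 50 nM h-ANP as positive response.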

Point of comparison: `CC1(O)CN(CC[C@@H](NC(=O)c2cc3cc4c(nc3s2)CC[C@H](C(C)(C)C)C4)c2ccc(-c3ccc(=O)[nH]c3)cc2)C1` (racemic) [Example 65, rac-(6S)-6-tert-butyl-N-[rac-(1R)-3-(3-hydroxy-3-methyl-azetidin-1-ium-1-yl)-1-[4-(6-oxo-1H-pyridin-3-yl)phenyl]propyl]-5,6,7,8-tetrahydrothieno[2,3-b]quinoline-2-carboxamide;formate], EC50 1300 nM. Against it:
- CC(C)(C)[C@H]1CCc2nc3sc(C(=O)N[C@H](CCN4CCC(c5nn[nH]n5)C4)c4ccc(-c5ccc(=O)[nH]c5)cc4)cc3cc2C1 (mixture of isomers) [Example 58, rac-(6S)-6-tert-butyl-N-[rac-(1R)-1-[4-(6-oxo-1H-pyridin-3-yl)phenyl]-3-[3-(2H-tetrazol-5-yl)pyrrolidin-1-ium-1-yl]propyl]-5,6,7,8-tetrahydrothieno[2,3-b]quinoline-2-carboxamide;formate] — within 1.5-fold, 915 nM
- CC(C)(C)[C@H]1CCc2nc3sc(C(=O)N[C@H](CCN4CCC(F)CC4)c4ccc(-c5ccc(=O)[nH]c5)cc4)cc3cc2C1 (racemic) [Example 59, rac-(6S)-6-tert-butyl-N-[rac-(1R)-3-(4-fluoropiperidin-1-ium-1-yl)-1-[4-(6-oxo-1H-pyridin-3-yl)phenyl]propyl]-5,6,7,8-tetrahydrothieno[2,3-b]quinoline-2-carboxamide;formate] — within 1.5-fold, 1010 nM
- CC(C)(C)[C@H]1CCc2nc3sc(C(=O)N[C@H](CCN4CCC(C(F)F)CC4)c4ccc(-c5ccc(=O)[nH]c5)cc4)cc3cc2C1 (racemic) [Example 60, rac-(6S)-6-tert-butyl-N-[rac-(1R)-3-[4-(difluoromethyl)piperidin-1-ium-1-yl]-1-[4-(6-oxo-1H-pyridin-3-yl)phenyl]propyl]-5,6,7,8-tetrahydrothieno[2,3-b]quinoline-2-carboxamide;formate] — within 1.5-fold, 1010 nM
- CC(C)(C)[C@H]1CCc2nc3sc(C(=O)N[C@H](CCN4C[C@@H](O)[C@@H](O)C4)c4ccc(-c5ccc(=O)[nH]c5)cc4)cc3cc2C1 (racemic) [Example 61, rac-(6S)-6-tert-butyl-N-[rac-(1R)-1-[4-(6-oxo-1H-pyridin-3-yl)phenyl]-3-[rac-(3S,4R)-3,4-dihydroxypyrrolidin-1-ium-1-yl]propyl]-5,6,7,8-tetrahydrothieno[2,3-b]quinoline-2-carboxamide;formate] — within 1.5-fold, 1040 nM
- CC(C)(C)[C@H]1CCc2nc3sc(C(=O)N[C@H](CCN[C@@H]4C[C@H](CO)[C@@H](O)[C@H]4O)c4ccc(-c5ccc(=O)[nH]c5)cc4)cc3cc2C1 (racemic) [Example 62, [rac-(1R,2S,3R,4R)-2,3-dihydroxy-4-(hydroxymethyl)cyclopentyl]-[rac-(3R)-3-[4-(6-oxo-1H-pyridin-3-yl)phenyl]-3-[rac-(6S)-6-tert-butyl-5,6,7,8-tetrahydrothieno[2,3-b]quinoline-2-carbonyl]amino]propyl] ammonium;formate] — within 1.5-fold, 1130 nM
- COC1CCN(CC[C@@H](NC(=O)c2cc3cc4c(nc3s2)CC[C@H](C(C)(C)C)C4)c2ccc(-c3ccc(=O)[nH]c3)cc2)CC1 (racemic) [Example 63, rac-(6S)-6-tert-butyl-N-[rac-(1R)-3-(4-methoxypiperidin-1-ium-1-yl)-1-[4-(6-oxo-1H-pyridin-3-yl)phenyl]propyl]-5,6,7,8-tetrahydrothieno[2,3-b]quinoline-2-carboxamide;formate] — within 1.5-fold, 1190 nM
- CN1CC(NCC[C@@H](NC(=O)c2cc3cc4c(nc3s2)CC[C@H](C(C)(C)C)C4)c2ccc(-c3ccc(=O)[nH]c3)cc2)C1 (racemic) [Example 64, (1-methylazetidin-3-yl)-[rac-(3R)-3-[4-(6-oxo-1H-pyridin-3-yl)phenyl]-3-[[rac-(6S)-6-tert-butyl-5,6,7,8-tetrahydrothieno[2,3-b]quinoline-2-carbonyl]amino]propyl] ammonium;formate] — within 1.5-fold, 1230 nM
- COCCN1CCN(CC[C@@H](NC(=O)c2cc3cc4c(nc3s2)CC[C@H](C(C)(C)C)C4)c2ccc(-c3ccc(=O)[nH]c3)cc2)CC1 (racemic) [Example 66, rac-(6S)-6-tert-butyl-N-[rac-(1R)-3-[4-(2-methoxyethyl)piperazin-1-yl]-1-[4-(6-oxo-1H-pyridin-3-yl)phenyl]propyl]-5,6,7,8-tetrahydrothieno[2,3-b]quinoline-2-carboxamide] — within 1.5-fold, 1330 nM
- CC(C)(C)[C@H]1CCc2nc3sc(C(=O)N[C@H](CCNC4CCNC4=O)c4ccc(-c5ccc(=O)[nH]c5)cc4)cc3cc2C1 (mixture of isomers) [Example 67, (2-oxopyrrolidin-3-yl)-[rac-(3R)-3-[4-(6-oxo-1H-pyridin-3-yl)phenyl]-3-[rac-(6S)-6-tert-butyl-5,6,7,8-tetrahydrothieno[2,3-b]quinoline-2-carbonyl]amino]propyl] ammonium;formate] — within 1.5-fold, 1800 nM
- CC(C)(C)[C@H]1CCc2nc3sc(C(=O)N[C@H](CCN4CCC(C#N)CC4)c4ccc(-c5ccc(=O)[nH]c5)cc4)cc3cc2C1 (racemic) [Example 68, rac-(6S)-6-tert-butyl-N-[rac-(1R)-3-(4-cyanopiperidin-1-ium-1-yl)-1-[4-(6-oxo-1H-pyridin-3-yl)phenyl]propyl]-5,6,7,8-tetrahydrothieno[2,3-b]quinoline-2-carboxamide;formate] — within 1.5-fold, 1810 nM
- CC(C)(C)[C@H]1CCc2nc3sc(C(=O)N[C@H](CCN[C@H]4COC[C@@H]4O)c4ccc(-c5ccc(=O)[nH]c5)cc4)cc3cc2C1 (racemic) [Example 69, [rac-(3S,4R)-4-hydroxytetrahydrofuran-3-yl]-[rac-(3R)-3-[4-(6-oxo-1H-pyridin-3-yl)phenyl]-3-[[rac-(6S)-6-tert-butyl-5,6,7,8-tetrahydrothieno[2,3-b]quinoline-2-carbonyl]amino]propyl] ammonium;formate] — within 1.5-fold, 1830 nM
- CN(C)[C@H]1CN(CC[C@@H](NC(=O)c2cc3cc4c(nc3s2)CC[C@H](C(C)(C)C)C4)c2ccc(-c3ccc(=O)[nH]c3)cc2)C[C@@H]1O (racemic) [Example 70, rac-(6S)-6-tert-butyl-N-[rac-(1R)-1-[4-(6-oxo-1H-pyridin-3-yl)phenyl]-3-[rac-(3S,4S)-3-(dimethylamino)-4-hydroxy-pyrrolidin-1-ium-1-yl]propyl]-5,6,7,8-tetrahydrothieno[2,3-b]quinoline-2-carboxamide;formate] — 1.5-fold higher, 1970 nM
- CC(C)(C)[C@H]1CCc2nc3sc(C(=O)N[C@H](CCN4C[C@H](O)C[C@H]4CO)c4ccc(-c5ccc(=O)[nH]c5)cc4)cc3cc2C1 (racemic) [Example 71, rac-(6S)-6-tert-butyl-N-[rac-(1R)-1-[4-(6-oxo-1H-pyridin-3-yl)phenyl]-3-[rac-(2S,4R)-4-hydroxy-2-(hydroxymethyl)pyrrolidin-1-ium-1-yl]propyl]-5,6,7,8-tetrahydrothieno[2,3-b]quinoline-2-carboxamide;formate] — 1.5-fold higher, 1990 nM
- CC(C)(C)[C@H]1CCc2nc3sc(C(=O)N[C@H](CCN4CCOCC4)c4ccc(C(=O)N[C@H]5CNC[C@@H]5O)cc4)cc3cc2C1 (racemic) [Example 72] — within 1.5-fold, 987 nM
- CC(C)(C)[C@H]1CCc2nc3sc(C(=O)N[C@H](CCN4CCC(O)CC4)c4ccc(-c5ccc(=O)[nH]c5)cc4)nc3cc2C1 (racemic) [Example 73, rac-(7S)-7-tert-butyl-N-[rac-(1R)-3-(4-hydroxy-1-piperidyl)-1-[4-(6-oxo-1H-pyridin-3-yl)phenyl]propyl]-5,6,7,8-tetrahydrothiazolo[5,4-b]quinoline-2-carboxamide] — 4.8-fold lower, 269 nM
- CC(C)(C)[C@H]1CCc2nc3sc(C(=O)N[C@H](CCN4CCC(CO)C4)c4ccc(-c5ccc(=O)[nH]c5)cc4)nc3cc2C1 (mixture of isomers) [Example 74, rac-(7S)-7-tert-butyl-N-[rac-(1R)-3-[3-(hydroxymethyl)pyrrolidin-1-yl]-1-[4-(6-oxo-1H-pyridin-3-yl)phenyl]propyl]-5,6,7,8-tetrahydrothiazolo[5,4-b]quinoline-2-carboxamide] — 4-fold lower, 328 nM
- CC(C)(C)[C@H]1CCc2nc3sc(C(=O)N[C@H](CCNC4CCOCC4)c4ccc(-c5ccc(=O)[nH]c5)cc4)nc3cc2C1 (racemic) [Example 75, rac-(7S)-7-tert-butyl-N-[rac-(1R)-1-[4-(6-oxo-1H-pyridin-3-yl)phenyl]-3-(tetrahydropyran-4-ylamino)propyl]-5,6,7,8-tetrahydrothiazolo[5,4-b]quinoline-2-carboxamide] — 2.1-fold lower, 634 nM
